From patent EP4685136A1, “AMINO LIPID, AND LIPID NANOPARTICLES AND USE THEREOF” (Shenzhen MagicRNA Biotechnology Co., Ltd., priority 2023, dated 2024)

How the values were obtained:
Balb/C mice = assay: In vivo delivery of luciferase mRNA by tail vein injection of LNPs with different DSPC contents (IVIS Spectrum); conditions: total fluorescence intensity, 0.1 mg/kg mRNA, 6 hours
Text: (§1) Preparation of lipid nanoparticles: the ionizable lipid (E12LA6B6O3) content was kept at 42.5%, the PEGylated lipid DMG-PEG2000 content was kept at 1.5%, and the phospholipid lipid ratio was adjusted to 15, 12.5, 10, 7.5, 5.0, 2.5, and 0. The increased or decreased molar ratio during adjustment of the phospholipid lipid molar ratio was applied to the cholesterol ratio to verify its effect on the quality control evaluation of lipid nanoparticles and on the in vivo delivery performance of luciferase mRNA. ALC-0315 and SM-102 were used as positive controls. Table 4: Component ratios under different phospholipids
E12LA6B6O3, phospholipid lipid (DSPC), cholesterol, and PEGylated lipid DMG-PEG2000 were mixed and dissolved in anhydrous ethanol according to the molar ratio in Table 4. […] The quality control of lipid nanoparticles was tested on a Malvern particle size analyzer and an microplate reader, and SM-102 and ALC-0315 (both purchased from AVT (Shanghai) Pharmaceutical Technology Co., Ltd) were added as a control group. […]
In vivo delivery: Three Balb/C mice were randomly selected from each group and injected with lipid nanoparticle solution at a dose of 0.1 mg/kg mRNA via tail vein injection. […] After 10 minutes, the mice were placed under the in vivo imaging system (IVIS Spectrum) to observe the total fluorescence intensity of each mouse and take photos for recording. […]

C57BL/6 mice = assay: In vivo delivery of luciferase mRNA by intramuscular injection of LNPs (IVIS imaging); conditions: total fluorescence intensity, Luc mRNA LNP, 0.5 mg/kg mRNA, 12 hours
Protocol: Preparation of lipid nanoparticles: same as Example 36.
(§2) Animal preparation: 6-week-old female C57BL/6 mice weighing about 20 g were selected and raised in an SPF-grade feeding room. Animal experiments were conducted strictly in accordance with the guidelines of the National Institutes of Health and animal ethics requirements.
In vivo delivery: Five C57BL/6 mice were randomly selected from each group and injected with lipid nanoparticle solution at a dose of 0.5 mg/kg mRNA by intramuscular injection. Twelve hours later, 200 µL of 10 mg/mL D-luciferin potassium salt was injected into the peritoneal cavity of each mouse. Five minutes later, the mice were placed under an in vivo imaging system (IVIS-200, Xenogen) to observe the total fluorescence intensity of each mouse and take photos for recording. The expression intensity of Luc mRNA delivered by intramuscular injection of LNPs composed of representative amino lipid compounds is shown in Table 3, with DLin-MC3 and SM-102 as controls. Table 3 Expression intensity of Luc mRNA delivered by intramuscular injection of LNPs composed of representative amino lipids

[1] = Encapsulation efficiency of Luc-mRNA lipid nanoparticles (Quant-iT RiboGreen RNA Kit); format: physicochemical; conditions: LNP of amino lipid:DSPC:cholesterol:DMG-PEG2000 47.5:10:41:1.5 with Luc-mRNA; lipid to mRNA mass ratio about 40:1
Protocol: (§3) The amino lipid compound of the present invention (or DLin-MC3 or SM-102 (both purchased from AVT (Shanghai) Pharmaceutical Technology Co., Ltd.)), phospholipid lipid (DSPC), cholesterol, and PEGylated lipid (DMG-PEG2000) were mixed and dissolved in anhydrous ethanol at a molar ratio of 47.5:10:41:1.5. The resulting ethanol solution and citric acid buffer (50 mM, pH = 4.0) dissolved with Luc-mRNA (TriLink) were mixed in a microfluidic chip at a volume ratio of 1:3 using a microfluidic preparation system to prepare a crude solution of lipid nanoparticles, which was then dialyzed in 1X PBS at 4°C for 6 h using a dialysis cassette (Fisher, MWCO 20,000). The product was filtered through a 0.22 µm microporous filter membrane before use. The mass ratio of the amino lipid compound to luciferase mRNA (Luc mRNA) was about 40:1.
The encapsulation efficiency was determined according to the standard procedure of the Quant-iT RiboGreen RNA Kit. Table 1 Characterization data of LNPs prepared using representative amino lipid compounds

[2] = Particle size and PDI of LNPs with different phospholipid lipid contents (Malvern particle size analyzer); format: physicochemical; conditions: Luc-mRNA LNPs, molar ratios of Table 4 (B1-B7); controls with 10 % phospholipid lipid
Text: as §1
(§4) E12LA6B6O3, phospholipid lipid (DSPC), cholesterol, and PEGylated lipid DMG-PEG2000 were mixed and dissolved in anhydrous ethanol according to the molar ratio in Table 4. The obtained ethanol solution and citric acid buffer (50 mM, pH = 4.0) dissolved with Luc-mRNA (TriLink) were mixed in a microfluidic chip at a volume ratio of 1:3 using a microfluidic preparation system to prepare a crude solution of lipid nanoparticles, which was then dialyzed in 1X PBS at 4°C for 6 h using a dialysis cassette (Fisher, MWCO 20,000). The product was filtered through a 0.22 µm microporous filter membrane before use. The base molar ratio of the amino lipid compound to the luciferase mRNA (Luc mRNA) is about 6.5:1. The quality control of lipid nanoparticles was tested on a Malvern particle size analyzer and an microplate reader, and SM-102 and ALC-0315 (both purchased from AVT (Shanghai) Pharmaceutical Technology Co., Ltd) were added as a control group.

[3] = Particle size and PDI of Luc-mRNA lipid nanoparticles (Nano-ZS ZEN3600, Malvern); format: physicochemical; conditions: LNP of amino lipid:DSPC:cholesterol:DMG-PEG2000 47.5:10:41:1.5 with Luc-mRNA; lipid to mRNA mass ratio about 40:1
Protocol: as §3
The particle size and PDI (polydispersity index) of the prepared lipid nanoparticles were measured by Nano-ZSZEN3600 (Malvern). 20 µL of lipid nanoparticle (LNP) solution was taken for particle size measurement, and cycled three times with each cycle for 30 s.

primary BMDC cells = assay: Transfection of Luc mRNA lipid nanoparticles on primary BMDC cells (ONE-Glo luciferase readout); format: cell-based, C57BL/6 mice; conditions: expression intensity of Luc mRNA on BMDCs; 10 µL LNP per well, 20,000 cells per well, 12 hours
Protocol: as §2
Cell acquisition: C57BL/6 mice were sacrificed by cervical dislocation and immersed in 75% alcohol for 5 minutes for disinfection. The thigh and tibia of the mice were dissected and the attached muscles were removed to expose the bone. The bone marrow in the tibia was blown out with a 1 mL syringe filled with PBS. The obtained bone marrow was dispersed by blowing and filtered through a 50 µm filter mesh to remove impurities. Red blood cell lysis solution (3-4 mL) was added to the obtained filtrate and allowed to stand for 5 minutes. Then, the supernatant was removed by centrifugation at 800 g for 5 minutes. The obtained cells were placed in 1640 culture medium (containing 10% fetal bovine serum, 20 ng/mL GMCSF, 10 ng/mL IL4) for being resuspended, and inoculated into 6-well plates at a density of 100,000 cells/mL of culture medium. The plates were placed in a cell culture incubator containing 5% CO2 at 37°C, and the medium was half-changed every 2 days. On the seventh day, the suspended cells and loosely adherent cells were collected and inoculated into 96-well all-white ELISA plates at a density of 20,000 cells per well, with a culture medium volume of 100 µL.
Cell transfection: the lipid nanoparticles encapsulating luciferase mRNA were added to a 96-well all-white ELISA plate with spreaded primary cells, and the volume of mRNA lipid nanoparticles added to each well was controlled to be 10 µL. Then, the plate was placed in an incubator with 5% CO2 concentration at 37°C for 12 hours.
Transfection efficiency detection: 20 µL of substrate ONE-Glo™ Luciferase was added to each well of a 96-well all-white ELISA plate, and the assay was performed using a multifunctional microplate reader (Biorek SynergyH1) after 1 min. The expression intensity of Luc mRNA transfected on BMDCs by lipid nanoparticles (LNPs) composed of representative amino lipid compounds is shown in Table 2, with DLin-MC3 and SM0102 as controls. Table 2 Expression intensity of transfection of representative amino lipid compounds on BMDCs

[4] = Encapsulation efficiency of LNPs with different phospholipid lipid contents (microplate reader); format: physicochemical; conditions: Luc-mRNA LNPs, molar ratios of Table 4 (B1-B7); controls with 10 % phospholipid lipid
Text: as §1
as §4, with “The product was filtered through a 0.22 µm microporous filter membrane before use. The base molar ratio of the amino lipid compound to the luciferase mRNA (Luc mRNA) is about 6.5:1.” left out

B16-OVA melanoma cells = assay: Tumor therapeutic effect of OVA mRNA LNP vaccine in B16-OVA melanoma-bearing mice; format: in vivo, C57BL/6 mice
Protocol: Preparation method: The amino lipid compound of the present invention was mixed with DSPC, cholesterol and DMG-PEG2000 at a molar ratio of 47.5:10:41:1.5 and dissolved in anhydrous ethanol. The obtained ethanol solution and citric acid buffer (50 mM, pH = 4.0) dissolved with OVA-mRNA were mixed in a microfluidic chip at a volume ratio of 1:3 using a microfluidic preparation system to prepare lipid nanoparticles, and then dialyzed in 1X PBS at 4°C for 6 h using a dialysis cassette (Fisher, MWCO 20,000) and filtered with a 0.22 µm microporous filter membrane before use. The mass ratio of the amino lipid compound to ovalbumin mRNA (OVA mRNA) was about 40: 1.
Animal preparation: Female C57BL/6 mice aged 5-6 weeks, weighing about 18-20 g were selected and kept in an SPF-grade feeding room. Animal experiments were conducted strictly in accordance with the guidelines of the National Institutes of Health and animal ethics requirements.
In vivo delivery: B16-OVA melanoma cells (1.5 × 10^5) were injected subcutaneously into the lateral thigh of mice. Vaccination was started when the tumor size reached 50 mm^3(approximately day 6 or 7 after tumor inoculation). Animals were immunized twice by intramuscular injection of LNP formulation containing 1 µg of OVA-mRNA, with an interval of the second injection from the first injection being 7 days. Tumor growth was measured three times per week using a digital caliper and calculated as 0.5 × length × width × width. Mice were euthanized when tumor volume reached 1500 mm^3.

Row | Encapsulation efficiency (%) [1] | PDI [2] | Particle size (nm) [2] | Average particle size (nm) [3] | PDI [3] | Encapsulation efficiency (%) [4] | SMILES | Fluorescence intensity (Balb/C mice) | Fluorescence intensity (C57BL/6 mice) | Luminescence intensity (primary BMDC cells) | mice achieved complete remission (B16-OVA melanoma cells; two intramuscular injections 7 days apart of LNP containing 1 µg OVA-mRNA (Figure 3)) | tumor growth rate (B16-OVA melanoma cells; two intramuscular injections 7 days apart of LNP containing 1 µg OVA-mRNA, compared with MC3 group (Figure 2))
1 | 94.32% | 0.09 | 91.9 nm | 79 nm | 0.10 | 96.4% | CCCCCCCCCCCOC(=O)CCCCCN(CCO)CCCCCCCC(=O)OC(CCCCCCCC)CCCCCCCC [SM-102, reference compound] | 9.86E+9 | 1.4E+09 | 1.0E+05 | – | –
2 | – | 0.08 | 71.3 nm | – | – | 94.1% | CCCCCCCCC(CCCCCC)C(=O)OCCCCCCN(CCCCO)CCCCCCOC(=O)C(CCCCCC)CCCCCCCC (centres unmarked) [ALC-0315] | 1.26E+10 | – | – | – | –
3 | 95.41% | – | – | 92 nm | 0.07 | – | CCCCCCCCC(COC(=O)CCCCC)OC(=O)CCCCCN(CCCO)CCCCCC(=O)OC(CCCCCCCC)COC(=O)CCCCC (centres unmarked) [E10LA6B6O3] | – | 1.4E+09 | 1.5E+05 | 80% | significantly slower than that of the MC3 group
